Assays:
[1] = target: T1, wild type LRRK2 overexpressed in recombinant HEK-293T cells (Homo sapiens, UniProt Q5S007); experiment: pS935 LRRK2 Cell Assay (HTRF, phospho-LRRK2 Ser935); format: cell-based; conditions: LRRK2 Inhibition, Table 8, 2 hours compound incubation
T1 construct: host or cells: HEK293T (transient transfection with pCMV-LRRK2 WT plasmid)
Method in brief: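 HEK-293T cells transiently transfected with wild-type LRRK2 for 24 h, plated overnight, then treated 2 h at 37° C with compound (top 10 μM, 3-fold, 9 doses, duplicates, 0.2% DMSO). Lysates probed overnight at 23° C by sandwich HTRF for pSer935; 665/615 nm ratio read.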

LRRK2 wild type enzyme = LRRK2 wild type enzyme (Homo sapiens, UniProt Q5S007); experiment: Biochemical Assay: LRRK2 TR-FRET (LanthaScreen) kinase assay with LRRKtide substrate; conditions: LRRK2 Inhibition, Table 8
Method in brief: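 Human wild-type LRRK2 (3 nM) preincubated 15 min with compound (11-point, 3-fold, top 10 μM), then reacted 120 min at 23 °C with 400 nM LRRKtide and 25 μM ATP, pH 8.0. Stopped with EDTA; Tb-anti-pLRRKtide TR-FRET read after 30 min.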

T1 sequence (Q5S007 whole entry): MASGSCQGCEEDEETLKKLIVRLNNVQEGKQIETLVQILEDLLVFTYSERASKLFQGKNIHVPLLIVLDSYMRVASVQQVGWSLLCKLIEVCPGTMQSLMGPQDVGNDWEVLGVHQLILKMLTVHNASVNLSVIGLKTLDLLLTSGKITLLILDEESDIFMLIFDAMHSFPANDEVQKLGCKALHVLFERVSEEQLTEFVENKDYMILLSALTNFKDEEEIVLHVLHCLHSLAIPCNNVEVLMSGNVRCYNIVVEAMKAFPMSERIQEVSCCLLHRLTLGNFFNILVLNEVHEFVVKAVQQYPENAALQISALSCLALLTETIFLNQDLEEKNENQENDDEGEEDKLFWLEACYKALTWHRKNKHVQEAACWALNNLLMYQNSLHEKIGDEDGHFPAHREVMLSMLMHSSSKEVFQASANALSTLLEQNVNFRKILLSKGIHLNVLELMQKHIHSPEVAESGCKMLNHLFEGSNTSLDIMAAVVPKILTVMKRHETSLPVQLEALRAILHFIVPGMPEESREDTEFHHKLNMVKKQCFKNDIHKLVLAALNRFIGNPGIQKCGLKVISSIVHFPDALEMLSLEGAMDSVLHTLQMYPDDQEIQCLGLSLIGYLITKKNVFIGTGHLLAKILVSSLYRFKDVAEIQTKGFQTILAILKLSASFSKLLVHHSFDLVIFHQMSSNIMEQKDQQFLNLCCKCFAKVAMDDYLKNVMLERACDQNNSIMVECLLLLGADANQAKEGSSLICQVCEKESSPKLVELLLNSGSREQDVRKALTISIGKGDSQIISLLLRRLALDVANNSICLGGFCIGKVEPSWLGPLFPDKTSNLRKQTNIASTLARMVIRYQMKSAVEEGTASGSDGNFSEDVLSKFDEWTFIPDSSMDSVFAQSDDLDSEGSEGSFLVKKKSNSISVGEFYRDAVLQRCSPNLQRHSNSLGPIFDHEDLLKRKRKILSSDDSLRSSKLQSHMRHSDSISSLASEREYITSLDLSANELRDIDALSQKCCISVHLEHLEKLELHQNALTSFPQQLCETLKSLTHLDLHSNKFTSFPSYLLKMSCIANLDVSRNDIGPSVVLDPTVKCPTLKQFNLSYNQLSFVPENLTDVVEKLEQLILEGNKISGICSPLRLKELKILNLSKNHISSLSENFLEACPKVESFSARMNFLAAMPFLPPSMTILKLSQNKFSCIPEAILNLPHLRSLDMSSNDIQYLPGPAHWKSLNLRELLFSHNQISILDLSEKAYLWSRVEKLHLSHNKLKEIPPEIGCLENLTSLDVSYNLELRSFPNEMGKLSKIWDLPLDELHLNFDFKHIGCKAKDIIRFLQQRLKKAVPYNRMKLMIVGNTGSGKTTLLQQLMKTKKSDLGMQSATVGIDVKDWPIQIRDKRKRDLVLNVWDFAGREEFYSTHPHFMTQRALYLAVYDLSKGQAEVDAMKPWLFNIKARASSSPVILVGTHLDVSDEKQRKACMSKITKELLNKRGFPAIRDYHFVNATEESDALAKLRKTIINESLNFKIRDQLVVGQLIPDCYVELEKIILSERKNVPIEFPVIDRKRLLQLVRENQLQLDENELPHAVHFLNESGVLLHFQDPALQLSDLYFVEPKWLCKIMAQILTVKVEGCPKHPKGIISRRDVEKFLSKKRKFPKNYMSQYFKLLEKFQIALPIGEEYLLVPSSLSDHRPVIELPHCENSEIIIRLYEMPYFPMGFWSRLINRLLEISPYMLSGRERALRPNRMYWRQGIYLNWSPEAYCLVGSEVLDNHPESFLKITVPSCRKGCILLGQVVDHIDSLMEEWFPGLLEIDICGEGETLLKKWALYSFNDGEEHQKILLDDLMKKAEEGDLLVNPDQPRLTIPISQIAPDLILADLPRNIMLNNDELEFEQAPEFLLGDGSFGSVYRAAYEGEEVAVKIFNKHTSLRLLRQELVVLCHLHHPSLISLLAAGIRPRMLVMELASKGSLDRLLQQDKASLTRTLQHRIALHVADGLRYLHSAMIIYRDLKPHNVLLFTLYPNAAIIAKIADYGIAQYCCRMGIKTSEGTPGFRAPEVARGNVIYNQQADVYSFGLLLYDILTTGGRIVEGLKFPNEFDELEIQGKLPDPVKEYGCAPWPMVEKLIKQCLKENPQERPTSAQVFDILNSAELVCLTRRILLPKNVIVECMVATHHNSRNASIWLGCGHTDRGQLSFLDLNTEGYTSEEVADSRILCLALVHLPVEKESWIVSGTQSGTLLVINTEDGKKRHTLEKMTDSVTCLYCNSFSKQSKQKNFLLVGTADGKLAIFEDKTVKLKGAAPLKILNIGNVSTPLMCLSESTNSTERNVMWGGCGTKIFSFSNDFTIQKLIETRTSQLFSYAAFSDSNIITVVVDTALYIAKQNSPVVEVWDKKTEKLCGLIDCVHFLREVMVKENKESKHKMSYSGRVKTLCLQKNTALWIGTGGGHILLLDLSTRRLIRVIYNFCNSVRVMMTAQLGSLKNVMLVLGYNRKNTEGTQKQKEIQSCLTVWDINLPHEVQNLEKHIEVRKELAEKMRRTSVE
Sequence of LRRK2 wild type enzyme (Q5S007 whole entry): as above

SMILES	IC50 [1] [nM]	IC50 (LRRK2 wild type enzyme) [nM]
Cc1nn(C)c(Cl)c1NC(=O)Cc1nc2cnc3ccc(C#N)cc3c2n1[C@@H]1CCO[C@H](C)C1 [Compound 296, N-(5-chloro-1-methyl-3-methyl-4-pyrazolyl){3-[(2R,4R)-2-methyltetrahydro-2H-pyran-4-yl]-12-cyano-3,5,8-triazatricyclo[7.4.0.0^2,6]trideca-1,4,6,8,10,12-hexaen-4-yl}acetamide]	7.61	0.462
C[C@@H]1C[C@H](n2c(C3CC(=O)N(c4cnn(C)c4)C3)nc3cnc4ccc(C#N)cc4c32)CCO1 (mixture of isomers) [Compound 59, 2-[(3RS)-1-(1-methyl-1H-pyrazol-4-yl)-5-oxopyrrolidin-3-yl]-1-[(2R,4R)-2-methyloxan-4-yl]-1H-imidazo[4,5-c]quinoline-8-carbonitrile]	118	1.06
COc1ncc(NC(=O)Cc2nc3cnc4ccc(C#N)cc4c3n2[C@@H]2CCO[C@H](C)C2)c(C)n1 [Compound 243, N-(2-methoxy-4-methyl-5-pyrimidinyl){3-[(2R,4R)-2-methyltetrahydro-2H-pyran-4-yl]-12-cyano-3,5,8-triazatricyclo[7.4.0.0^2,6]trideca-1(9),2(6),4,7,10,12-hexaen-4-yl}acetamide]	11.5	0.565
Cc1cc(NC(=O)Cc2nc3cnc4ccc(C#N)cc4c3n2[C@@H]2CCO[C@H](C)C2)no1 [Compound 156, 2-{8-cyano-1-[(2R,4R)-2-methyloxan-4-yl]-1H-imidazo[4,5-c]quinolin-2-yl}-N-(5-methyl-1,2-oxazol-3-yl)acetamide]	6.83	0.529
C[C@@H]1C[C@H](n2c(CS(=O)(=O)NCC3CC3)nc3cnc4ccc(C#N)cc4c32)CCO1 [Compound 55, 1-{8-cyano-1-[(2R,4R)-2-methyloxan-4-yl]-1H-imidazo[4,5-c]quinolin-2-yl}-N-(cyclopropylmethyl)methanesulfonamide]	272	2.3
COc1ncccc1NC(=O)Cc1nc2cnc3ccc(C#N)cc3c2n1[C@@H]1CCO[C@H](C)C1 [Compound 318, N-(2-methoxy-3-pyridyl){3-[(2R,4R)-2-methyltetrahydro-2H-pyran-4-yl]-12-cyano-3,5,8-triazatricyclo[7.4.0.0^2,6]trideca-1(9),2(6),4,7,10,12-hexaen-4-yl}acetamide]	2.04	0.499
Cc1nc(NC(=O)Cc2nc3cnc4ccc(C#N)cc4c3n2[C@@H]2CCO[C@H](C)C2)no1 [Compound 368, N-(5-methyl-1,2,4-oxadiazol-3-yl){3-[(2R,4R)-2-methyltetrahydro-2H-pyran-4-yl]-12-cyano-3,5,8-triazatricyclo[7.4.0.0^2,6]trideca-1(9),2(6),4,7,10,12-hexaen-4-yl}acetamide]	16.5	0.509
C[C@@H]1C[C@H](n2c(C3CCN(C(=O)c4cnn(C)c4)CC3)nc3cnc4ccc(C#N)cc4c32)CCO1 [Compound 118, 2-[1-(1-methyl-1H-pyrazole-4-carbonyl)piperidin-4-yl]-1-[(2R,4R)-2-methyloxan-4-yl]-1H-imidazo[4,5-c]quinoline-8-carbonitrile]	330	0.855
C[C@@H]1C[C@H](n2c(CC(=O)Nc3ccccn3)nc3cnc4ccc(C#N)cc4c32)CCO1 [Compound 155, 2-{8-cyano-1-[(2R,4R)-2-methyloxan-4-yl]-1H-imidazo[4,5-c]quinolin-2-yl}-N-(pyridin-2-yl)acetamide]	2.87	0.441
C[C@@H]1C[C@H](n2c(CN3CCOCC3=O)nc3cnc4ccc(C#N)cc4c32)CCO1 [Compound 78, 1-[(2R,4R)-2-methyloxan-4-yl]-2-[(3-oxomorpholin-4-yl)methyl]-1H-imidazo[4,5-c]quinoline-8-carbonitrile]	1010	12.2
N#Cc1ccc2ncc3nc(CC(=O)NCC4CC4)n(C4CCCC4)c3c2c1 [Compound 109, 2-{8-cyano-1-cyclopentyl-1H-imidazo[4,5-c]quinolin-2-yl}-N— (cyclopropylmethyl)acetamide]	172	1.82
